In US20090018019A1, “INCREASING PATHOGEN DEFENCE IN PLANTS” (priority 2005, published 2009):

Experiments:
Test in all cases: DNA chip expression analysis of barley leaves after soil treatment
Type in all cases: in vivo
Details in all cases: 10 mg per plant to soil
[1] = tested on: Contig2788_x_at THAUMATIN-LIKE PROTEIN TLP7
Experimental: (§1) Barley seeds (of the Baroness variety) were sown in pots containing soil about 2 cm deep (1250 g of sandy loam/per pot; the soil moisture content was adjusted to 70% of the maximum water-holding capacity) and cultivated in a climatized chamber under specified light, moisture and temperature conditions (15 h white light, 70% atmospheric humidity, 23-19° C. day/night).
(§2) 14 days after the emergence of the barley plants 10 mg of imidacloprid per plant, dissolved in 100 ml water, were applied by means of a pipette to the soil around the base of the shoot. The same volume of water without any active compound was applied to the control pots. After the soil treatment the plants were no longer watered. At various times after application (0.25; 1; 6; 8; 11; 13; 15; 16 and 17 days) the leaves were harvested, quick-frozen in liquid nitrogen and stored at −80° C. until further treatment.
(§3) The labelled RNA probes for the DNA chip hybridization were produced according to the protocols (Expression Analysis, Technical Manual) of the Affymetrix company (Affymetrix Inc., 3380 Central Expressway, Santa Clara, Calif., USA). Whole RNA was first of all isolated from in each case 500 mg of the harvested leaves. 10 μg portions of whole RNA were used for the first and second strand cDNA synthesis. The cDNA was amplified with T7 polymerase and simultaneously labelled with biotin-UTP. 20 μg portions of this biotinylated cDNA were used for the hybridization of the barley genome array (Barleyl Gene Chip, Item no: 511012) from Affymetrix. This DNA microarray contains DNA sequences of 22840 genes composed of a total of 400000 EST (Expressed Sequence Tag) sequences. Then the DNA microarrays were washed in the Affymetrix Fluidics Station, stained with streptavidin/phycoerythrin (Molecular Probes, P/N S-866) and scanned with the Affymetrix Gene Chip Scanner 3000. The fluorescence data obtained were analyzed with the Microarray Suite 5 software from Affymetrix and the Expressionist Pro software from the GeneData company. After a quality check, all of the DNA chip analyses were stored in a database. Since the Affymetrix Gene Chip System is based on measuring the absolute expression values of the genes contained in the chip, the expression values of the biological replicates of treated and non-treated plants were averaged after normalization (median calculation). With the aid of the statistical ANOVA method, those genes were identified whose expression was increased in the plants treated with imidacloprid but remained relatively constant in the untreated controls. The assembly of gene groups from specific metabolic pathways, signal transduction chains or functions was carried out by a keyword search through the gene annotations supplied by Affymetrix and by linking the genes to their corresponding Gene Ontology Annotations (Gene Ontology Consortium).

[2] = tested on: Contig2990_at CHITINASE (EC 3.2.1.14)
Experimental: as §1, §2, §3

[3] = tested on: Contig639_at PATHOGENESIS-RELATED PROTEIN PRECURSOR
Experimental: as §1, §2, §3

[4] = tested on: Contig17082_at TRYPSIN INHIBITOR
Experimental: as §1, §2, §3

[5] = tested on: Contig2214_s_at PATHOGENESIS RELATED PROTEIN (HV-1A)
Experimental: as §1, §2, §3

O=[N+]([O-])/N=C1\NCCN1Cc1ccc(Cl)nc1 [imidacloprid]
Induction factor = Expression (treated)/Expression (untreated) ([1]; 0.25 d): 0.8
Median of the raw expression data, treated ([1]; 0.25 days): 71.22
Induction factor = Expression (treated)/Expression (untreated) ([1]; 1 d): 0.7
Median of the raw expression data, treated ([1]; 1 day): 70.44
Induction factor = Expression (treated)/Expression (untreated) ([1]; 6 d): 12.2
Median of the raw expression data, treated ([1]; 6 days): 5432.88
Induction factor = Expression (treated)/Expression (untreated) ([1]; 8 d): 8.0
Median of the raw expression data, treated ([1]; 8 days): 7952.61
Induction factor = Expression (treated)/Expression (untreated) ([1]; 11 d): 6.3
Median of the raw expression data, treated ([1]; 11 days): 12190.31
Induction factor = Expression (treated)/Expression (untreated) ([1]; 13 d): 2.3
Median of the raw expression data, treated ([1]; 13 days): 4800.62
Induction factor = Expression (treated)/Expression (untreated) ([1]; 15 d): 1.5
Median of the raw expression data, treated ([1]; 15 days): 4880.14
Induction factor = Expression (treated)/Expression (untreated) ([1]; 16 d): 2.5
Median of the raw expression data, treated ([1]; 16 days): 1836.52
Induction factor = Expression (treated)/Expression (untreated) ([1]; 17 d): 1.2
Median of the raw expression data, treated ([1]; 17 days): 1166.53
Induction factor = Expression (treated)/Expression (untreated) ([2]; 0.25 d): 0.9
Median of the raw expression data, treated ([2]; 0.25 days): 31.12
Induction factor = Expression (treated)/Expression (untreated) ([2]; 1 d): 0.9
Median of the raw expression data, treated ([2]; 1 day): 29.13
Induction factor = Expression (treated)/Expression (untreated) ([2]; 6 d): 8.4
Median of the raw expression data, treated ([2]; 6 days): 561.20
Induction factor = Expression (treated)/Expression (untreated) ([2]; 8 d): 19.3
Median of the raw expression data, treated ([2]; 8 days): 830.74
Induction factor = Expression (treated)/Expression (untreated) ([2]; 11 d): 13.6
Median of the raw expression data, treated ([2]; 11 days): 664.56
Induction factor = Expression (treated)/Expression (untreated) ([2]; 13 d): 3.0
Median of the raw expression data, treated ([2]; 13 days): 235.46
Induction factor = Expression (treated)/Expression (untreated) ([2]; 15 d): 1.1
Median of the raw expression data, treated ([2]; 15 days): 227.32
Induction factor = Expression (treated)/Expression (untreated) ([2]; 16 d): 2.5
Median of the raw expression data, treated ([2]; 16 days): 76.80
Induction factor = Expression (treated)/Expression (untreated) ([2]; 17 d): 0.6
Median of the raw expression data, treated ([2]; 17 days): 32.84
Induction factor = Expression (treated)/Expression (untreated) ([3]; 0.25 d): 0.7
Median of the raw expression data, treated ([3]; 0.25 days): 157.66
Induction factor = Expression (treated)/Expression (untreated) ([3]; 1 d): 0.3
Median of the raw expression data, treated ([3]; 1 day): 38.68
Induction factor = Expression (treated)/Expression (untreated) ([3]; 6 d): 8.6
Median of the raw expression data, treated ([3]; 6 days): 2482.57
Induction factor = Expression (treated)/Expression (untreated) ([3]; 8 d): 14.7
Median of the raw expression data, treated ([3]; 8 days): 3944.01
Induction factor = Expression (treated)/Expression (untreated) ([3]; 11 d): 8.9
Median of the raw expression data, treated ([3]; 11 days): 4273.57
Induction factor = Expression (treated)/Expression (untreated) ([3]; 13 d): 11.3
Median of the raw expression data, treated ([3]; 13 days): 1496.21
Induction factor = Expression (treated)/Expression (untreated) ([3]; 15 d): 2.9
Median of the raw expression data, treated ([3]; 15 days): 920.86
Induction factor = Expression (treated)/Expression (untreated) ([3]; 16 d): 4.4
Median of the raw expression data, treated ([3]; 16 days): 1300.36
Induction factor = Expression (treated)/Expression (untreated) ([3]; 17 d): 2.9
Median of the raw expression data, treated ([3]; 17 days): 1196.37
Induction factor = Expression (treated)/Expression (untreated) ([4]; 0.25 d): 0.9
Median of the raw expression data, treated ([4]; 0.25 days): 161.42
Induction factor = Expression (treated)/Expression (untreated) ([4]; 1 d): 1.1
Median of the raw expression data, treated ([4]; 1 day): 162.50
Induction factor = Expression (treated)/Expression (untreated) ([4]; 6 d): 3.8
Median of the raw expression data, treated ([4]; 6 days): 745.06
Induction factor = Expression (treated)/Expression (untreated) ([4]; 8 d): 3.7
Median of the raw expression data, treated ([4]; 8 days): 853.21
Induction factor = Expression (treated)/Expression (untreated) ([4]; 11 d): 3.6
Median of the raw expression data, treated ([4]; 11 days): 911.63
Induction factor = Expression (treated)/Expression (untreated) ([4]; 13 d): 2.2
Median of the raw expression data, treated ([4]; 13 days): 281.55
Induction factor = Expression (treated)/Expression (untreated) ([4]; 15 d): 1.5
Median of the raw expression data, treated ([4]; 15 days): 209.34
Induction factor = Expression (treated)/Expression (untreated) ([4]; 16 d): 1.6
Median of the raw expression data, treated ([4]; 16 days): 276.41
Induction factor = Expression (treated)/Expression (untreated) ([4]; 17 d): 1.1
Median of the raw expression data, treated ([4]; 17 days): 225.25
Induction factor = Expression (treated)/Expression (untreated) ([5]; 0.25 d): 0.9
Median of the raw expression data, treated ([5]; 0.25 days): 86.29
Induction factor = Expression (treated)/Expression (untreated) ([5]; 1 d): 0.5
Median of the raw expression data, treated ([5]; 1 day): 44.68
Induction factor = Expression (treated)/Expression (untreated) ([5]; 6 d): 9.8
Median of the raw expression data, treated ([5]; 6 days): 3322.93
Induction factor = Expression (treated)/Expression (untreated) ([5]; 8 d): 11.1
Median of the raw expression data, treated ([5]; 8 days): 4807.28
Induction factor = Expression (treated)/Expression (untreated) ([5]; 11 d): 9.3
Median of the raw expression data, treated ([5]; 11 days): 4463.75
Induction factor = Expression (treated)/Expression (untreated) ([5]; 13 d): 5.1
Median of the raw expression data, treated ([5]; 13 days): 636.20
Induction factor = Expression (treated)/Expression (untreated) ([5]; 15 d): 3.0
Median of the raw expression data, treated ([5]; 15 days): 808.24
Induction factor = Expression (treated)/Expression (untreated) ([5]; 16 d): 2.4
Median of the raw expression data, treated ([5]; 16 days): 1241.52
Induction factor = Expression (treated)/Expression (untreated) ([5]; 17 d): 0.6
Median of the raw expression data, treated ([5]; 17 days): 472.04
